Reference: patent publication EP4616867A1, “COMBINATION OF ENDOTHELIN RECEPTOR ANTAGONIST AND GLUCOCORTICOID FOR TREATING IGA NEPHROPATHY” (Sanreno Therapeutics (Shanghai) Limited, priority 2022, dated 2024)

Tested on: IgA nephropathy model mice
Experiment: Efficacy of atrasentan, methylprednisolone and combinations in IgA nephropathy model mice (CFA-stimulated humanized IGHA1 mice); blood hIgA1, IgG, IgM
Assay type: in vivo
Details: IgAN mice; for IgG, Difference between pre-treatment and post-treatment value (post-treatment minus pre-treatment), Mean (SD) / IgG, Difference between pre-treatment and post-treatment value (post-treatment minus pre-treatment), Median (Q1 - Q3) / IgM, Difference between pre-treatment and post-treatment value (post-treatment minus pre-treatment), Mean (SD) / IgM, Difference between pre-treatment and post-treatment value (post-treatment minus pre-treatment), Median (Q1 - Q3) / hIgA1, Difference between pre-treatment and post-treatment value (post-treatment minus pre-treatment), Mean (SD) / hIgA1, Difference between pre-treatment and post-treatment value (post-treatment minus pre-treatment), Median (Q1 - Q3): 30 days gavage; for IgG, After treatment, Mean (SD) / IgG, After treatment, Median (Q1 - Q3) / IgM, After treatment, Mean (SD) / IgM, After treatment, Median (Q1 -Q3) / hIgA1, After treatment, Mean (SD) / hIgA1, After treatment, Median (Q1 - Q3): after 30 days gavage, atrasentan 15 mg/kg/day, methylprednisolone 5 mg/kg/day, dapagliflozin 1 mg/kg/day; for IgG, Before treatment, Mean (SD) / IgG, Before treatment, Median (Q1 - Q3) / IgM, Before treatment, Mean (SD) / IgM, Before treatment, Median (Q1 - Q3) / hIgA1, Before treatment, Mean (SD) / hIgA1, Before treatment, Median (Q1 - Q3): baseline before dosing
From the text: The present invention will be further described below through examples, but the examples are not meant to limit the scope of the present invention in any way. For the measurement methods of various parameters in the examples, reference should be made to Wan F, Wang H, Wang M, Lü J, Zhao M, Zhang H. Sustained release of Lactobacillus casei cell wall extract can induce a continuous and stable IgA deposition model. […] Chimeric Fusion between Clostridium Ramosum IgA Protease and IgG Fc Provides Long-Lasting Clearance of IgA Deposits in Mouse Models of IgA Nephropathy. […] The above-mentioned documents are incorporated into this application in their entirety. […] Complete Freunds adjuvant (CFA) and phosphate buffer solution (PBS) were mixed thoroughly and emulsified at a ratio of 1:1 to obtain a CFA injection that was intraperitoneally injected into 8-week-old humanized IGHA1 mice constructed in step 1. Four times the mouse body weight (4w μl) was injected every 2 weeks, administering a total of 6 injections over a time period of about 2.5 months. • 2. In this experiment, the 8-week-old humanized IgA1 mice underwent an induction period of 2 to 5 months after the final injection of CFA. Table 1 […] Each group received intraperitoneal injections of CFA injection to create a model. Upon model completion, atrasentan, methylprednisolone and/or dapagliflozin were administered as outlined below. The control group was administered an equal amount of solvent (an aqueous solution of 0.5% (w/v) methylcellulose and 0.5% (v/v) Tween 80) by gavage for 30 days. Dosing method: atrasentan (15 mg/kg/day), methylprednisolone (5 mg/kg/day), dapagliflozin (1 mg/kg/day) were administered by gavage every morning for 30 days. When co-administered, the required medicines were mixed together in the appropriate proportion (the dose of each medicine was calculated according to mouse body weight) before administration by gavage. […] Prior to dosing, once every 2 weeks during the dosing period, and on day 30 of dosing, urine creatinine, urine protein level, and albumin to creatinine ratio (ACR) were measured, and the mice checked for the presence of haematuria. Prior to dosing and on day 30 of dosing, renal tissue pathology was scored according to the Oxford classification system, IgA and C3 deposition in renal tissue was measured by immunofluorescence assay, and mice in each group were examined for cardiac pathology.

SMILES | IgG, Difference between pre-treatment and post-treatment value (post-treatment minus pre-treatment), Mean (SD) | IgG, Difference between pre-treatment and post-treatment value (post-treatment minus pre-treatment), Median (Q1 - Q3) | IgM, Difference between pre-treatment and post-treatment value (post-treatment minus pre-treatment), Mean (SD) | IgM, Difference between pre-treatment and post-treatment value (post-treatment minus pre-treatment), Median (Q1 - Q3) | hIgA1, Difference between pre-treatment and post-treatment value (post-treatment minus pre-treatment), Mean (SD) | hIgA1, Difference between pre-treatment and post-treatment value (post-treatment minus pre-treatment), Median (Q1 - Q3) | IgG, After treatment, Mean (SD) | IgG, After treatment, Median (Q1 - Q3) | IgM, After treatment, Mean (SD) | IgM, After treatment, Median (Q1 -Q3) | hIgA1, After treatment, Mean (SD) | hIgA1, After treatment, Median (Q1 - Q3) | IgG, Before treatment, Mean (SD) | IgG, Before treatment, Median (Q1 - Q3) | IgM, Before treatment, Mean (SD) | IgM, Before treatment, Median (Q1 - Q3) | hIgA1, Before treatment, Mean (SD) | hIgA1, Before treatment, Median (Q1 - Q3)
CCCCN(CCCC)C(=O)CN1C[C@H](c2ccc3c(c2)OCO3)[C@@H](C(=O)O)[C@@H]1c1ccc(OC)cc1 [Atrasentan (A), atrasentan] | 1.69(0.35) | 1.58(1.11 - 2.23) | 0.54(0.23) | 0.38(0.07 - 0.69) | 5.95 (1.50) | 4.96 (3.03 - 8.99) | 5.04(0.10) | 5.06(4.74 - 5.25) | 2.08(0.45) | 1.72(1.28 - 2.26) | 15.99( 3.40) | 12.99 (7.93 - 23.80) | 3.35(0.36) | 3.32(2.90 - 4.14) | 1.55(0.25) | 1.31(1.02 - 1.97) | 10.04 (2.46) | 7.88(4. 24 - 16.39)
C[C@H]1C[C@@H]2[C@H]([C@@H](O)C[C@@]3(C)[C@H]2CC[C@]3(O)C(=O)CO)[C@@]2(C)C=CC(=O)C=C12 [Methylprednisolone (MP), methylprednisolone] | -0.10(0.20) | -0.09(-0.28 - 0.39) | -0.04(0.08) | -0.05(-0.12 - 0.13) | -0.03( 0.70) | -0.11 (-1.97 - 2.12) | 4.75(0.81) | 3.56(3.22 - 7.06) | 1.51(0.33) | 1.08(0.80 - 2.34) | 6.63(0 .79) | 6.23( 4.78 - 8.97) | 4.85(0.94) | 3.75(3.04 - 7.83) | 1.55(0.28) | 1.31(0.90 - 2.22) | 6.66( 0.37) | 6.69(6. 12 - 7.53)
